Laboratory results as given in paper PMC12345137 (mBio, 2025).
Values joined by “and” are separate entries in the source; they are usually repeats but may differ in a detail not shown here. Equal values may be shown once. “Also recorded” adds a separate entry of the source. Read-outs that look alike come from different tables or passages of the source. Positions of bridges follow the written chain, without caps; N, C: chain ends. Residues, ends and D or L forms follow the SMILES beside them.

Columns and labels:
S. aureus (SA) agr-I = details: b-lactamase, cited from earlier work
SA AgrC-III [1] = target: T1, SA AgrC-III (Staphylococcus aureus, UniProt O33590); details: 100 nM cognate AIP, ± SEM, determined previously, ref (1), cited from earlier work
T1 sequence (O33590 entry or part of it): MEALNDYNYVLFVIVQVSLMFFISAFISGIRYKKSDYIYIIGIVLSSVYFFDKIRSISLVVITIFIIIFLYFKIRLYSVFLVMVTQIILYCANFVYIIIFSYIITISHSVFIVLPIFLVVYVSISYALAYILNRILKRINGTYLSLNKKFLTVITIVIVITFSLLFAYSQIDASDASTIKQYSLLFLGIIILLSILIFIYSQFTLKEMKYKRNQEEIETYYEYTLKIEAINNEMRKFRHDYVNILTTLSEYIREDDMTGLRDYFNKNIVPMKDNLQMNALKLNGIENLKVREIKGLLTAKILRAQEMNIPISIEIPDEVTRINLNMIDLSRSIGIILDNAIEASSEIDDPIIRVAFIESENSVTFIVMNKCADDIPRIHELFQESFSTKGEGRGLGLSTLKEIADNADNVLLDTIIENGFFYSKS

SA AgrC-IV [2] = target: T2, SA AgrC-IV (Staphylococcus aureus, UniProt Q309Z2)
T2 sequence (Q309Z2 entry or part of it): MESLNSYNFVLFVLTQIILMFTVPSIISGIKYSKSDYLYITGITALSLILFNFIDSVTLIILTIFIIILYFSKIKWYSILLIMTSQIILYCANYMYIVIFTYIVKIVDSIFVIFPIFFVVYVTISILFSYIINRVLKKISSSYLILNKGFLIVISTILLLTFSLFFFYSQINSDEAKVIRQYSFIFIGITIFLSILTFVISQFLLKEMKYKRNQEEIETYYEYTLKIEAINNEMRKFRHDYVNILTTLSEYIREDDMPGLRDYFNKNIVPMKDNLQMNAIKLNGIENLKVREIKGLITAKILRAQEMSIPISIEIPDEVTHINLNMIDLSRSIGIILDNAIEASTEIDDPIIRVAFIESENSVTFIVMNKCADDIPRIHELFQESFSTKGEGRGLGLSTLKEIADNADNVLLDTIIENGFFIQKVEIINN

S. aureus (SA) agr-II = tested on: S. aureus (SA) agr-II; parameters: method as in ref (5) (a number printed in a supplementary file, which may have a reference list of its own: not looked up in the article's list); details: hemolysis; ref (5); cited from earlier work
S. aureus (SA) agr-III = tested on: S. aureus (SA) agr-III; parameters: method as in ref (5) (a number printed in a supplementary file, which may have a reference list of its own: not looked up in the article's list); details: hemolysis; ref (5); cited from earlier work
SA AgrC-II [3] = target: T3, SA AgrC-II (Staphylococcus aureus, UniProt O33587)
T3 sequence (O33587 entry or part of it): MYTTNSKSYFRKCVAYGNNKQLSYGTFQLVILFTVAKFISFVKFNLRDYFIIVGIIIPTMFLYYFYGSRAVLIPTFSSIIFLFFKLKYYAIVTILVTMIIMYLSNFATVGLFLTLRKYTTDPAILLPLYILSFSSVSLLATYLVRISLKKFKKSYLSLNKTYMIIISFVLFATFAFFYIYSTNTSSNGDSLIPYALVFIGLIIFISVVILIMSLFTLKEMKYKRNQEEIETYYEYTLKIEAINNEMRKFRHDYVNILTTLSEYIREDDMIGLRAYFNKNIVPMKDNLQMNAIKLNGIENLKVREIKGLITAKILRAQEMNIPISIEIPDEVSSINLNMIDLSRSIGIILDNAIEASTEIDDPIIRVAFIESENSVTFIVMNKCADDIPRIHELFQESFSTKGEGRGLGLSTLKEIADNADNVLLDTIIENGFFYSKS

[4] = tested on: S. epidermidis (SE) agr-I; details: fluorescence, ref (11), cited from earlier work
S. aureus (SA) agr-IV = details: fluorescence, cited from earlier work
SA AgrC-II [5] = target: T3, SA AgrC-II; test: β-Lactamase assay, reporter strain RN10829 (P2-agrA:P3-blaZ) with pagrC-II; assay type: cell-based
Method in brief: (§1)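 Peptides at 10 μM–10 pM final were tested against 100 nM cognate AIP on early-exponential RN10829 cells that express the relevant AgrC from a plasmid and carry a chromosomal P3-blaZ reporter; incubation 1 h at 37°C. After freezing, β-lactamase was read as nitrocefin conversion at OD486, and IC50 came from non-linear regression of the rates.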

[6] = tested on: S. aureus agr-I P3-YFP reporter strain; test: Quorum sensing inhibition resistance development experiment; assay type: cell-based, Staphylococcus aureus; details: flow cytometry
Experimental: The next day, YFP expression levels were assessed by flow cytometry (YFP: excitation 500 nm, emission 541 nm), and the overnight cultures were diluted 1:250 in fresh TSB medium containing CAM and 33 or no peptide (final volume 2.0 mL) and incubated overnight at 37°C in a shaking incubator. The procedure was repeated in total for 15 days, and the passaged cultures were subsequently frozen at −80°C. The passaged cultures were inoculated from frozen stocks in 2.0 mL TSB medium containing CAM in 15 mL centrifugal tubes and incubated overnight at 37°C in a shaking incubator.

SA AgrC-IV [7] = target: T2, SA AgrC-IV; test: β-Lactamase assay, reporter strain RN10829 (P2-agrA:P3-blaZ) with pagrC-IV; assay type: cell-based
Method in brief: as §1

SA AgrC-III [8] = target: T1, SA AgrC-III; test: β-Lactamase assay, reporter strain RN10829 (P2-agrA:P3-blaZ) with pagrC-III; assay type: cell-based
Method in brief: as §1

SA AgrC-I = SA AgrC-I (Staphylococcus aureus, UniProt O07911); test: β-Lactamase assay, reporter strain RN10829 (P2-agrA:P3-blaZ) with pagrC-I; assay type: cell-based
Sequence of SA AgrC-I (O07911 entry or part of it): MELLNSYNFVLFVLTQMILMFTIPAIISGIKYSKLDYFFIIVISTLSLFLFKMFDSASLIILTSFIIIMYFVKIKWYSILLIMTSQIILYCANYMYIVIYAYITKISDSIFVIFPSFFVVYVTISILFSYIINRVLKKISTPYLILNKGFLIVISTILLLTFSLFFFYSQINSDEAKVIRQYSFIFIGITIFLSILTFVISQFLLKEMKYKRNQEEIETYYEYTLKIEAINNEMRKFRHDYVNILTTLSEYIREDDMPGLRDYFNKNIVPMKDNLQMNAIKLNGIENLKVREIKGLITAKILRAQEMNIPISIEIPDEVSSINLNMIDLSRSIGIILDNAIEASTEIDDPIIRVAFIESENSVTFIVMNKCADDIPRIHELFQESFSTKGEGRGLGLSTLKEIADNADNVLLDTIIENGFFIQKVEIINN
Method in brief: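 S. aureus RN10829 (P2-agrA:P3-blaZ) expressing AgrC-I from plasmid, grown in TSB to OD600 0.35–0.40, treated with peptides (10 μM–10 pM) plus cognate AIP (100 nM) for 1 h at 37°C, 200 rpm.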

[9] = 100 nM cognate AIP; ± SEM; -b = no inhibition recorded at the highest AIP concentration tested; determined previously; ref (1); read-out: IC50, SA AgrC-II, b-lactamase assay; cited from earlier work

| Compound | IC50 (S. aureus (SA) agr-II) [nM] | IC50 (S. aureus (SA) agr-III) [nM] | IC50 (SA AgrC-II [3]; [9]) [nM] | IC50 (S. aureus (SA) agr-IV; ref (17)) [nM] | IC50 (SA AgrC-II [5]) [nM] | IC50 (SA AgrC-IV [7]) [nM] | IC50 (SA AgrC-III [8]) [nM] | IC50 (SA AgrC-I) [nM] | further results |
| --- | --- | --- | --- | --- | --- | --- | --- | --- | --- |
| CC[C@H](C)[C@@H]1NC(=O)[C@H](Cc2ccccc2)NC(=O)[C@H](CC(=O)O)NC(=O)[C@@H](NC(=O)[C@@H](NC(=O)[C@H](CO)NC(=O)[C@@H](N)Cc2ccc(O)cc2)[C@@H](C)O)CSC(=O)[C@H](CCSC)NC1=O [compound 1, S. aureus AIP-I] (H-YSTCDFIM; thioester 4-C) | 3.34 | 6.12 | 700 ± 165 |  |  |  |  |  | EC50 (S. aureus (SA) agr-I; ref (3)): 40 nM and 23 nM; EC50 (S. aureus (SA) agr-I; ref (4)): 28 nM; EC50 (S. aureus (SA) agr-I; ref (6)): 11 nM; EC50 (S. aureus (SA) agr-I; ref (7)): 3.21 nM; IC50 (SA AgrC-III [1]; -b = no inhibition recorded at the highest AIP concentration tested, read-out: IC50, SA AgrC-III, b-lactamase assay): 80 ± 11 nM; EC50 (SA AgrC-IV [2]; ± SEM; determined previously; ref (1); read-out: EC50, SA AgrC-IV, b-lactamase assay; cited from earlier work): 790 ± 66 nM; inhibition at 1000 nM, SE agr-I ([4]; at 1000 nM): no inhibition |
| CC(C)C[C@@H]1NC(=O)[C@@H](NC(=O)[C@@H]2CCCN2C(=O)[C@H](CC(N)=O)NC(=O)[C@H](Cc2ccc(O)cc2)NC(=O)[C@@H](N)CCCCN)CSC(=O)[C@H](CC(C)C)NC(=O)[C@H](Cc2ccccc2)NC(=O)CNC1=O [compound 32, S. simulans AIP-I] (H-KYNPCLGFL; thioester 5-C; N-terminus assumed) |  |  |  | 23 |  |  |  |  | IC50 (SA AgrC-III [1]; read-out: IC50, SA AgrC-III, b-lactamase assay, -b = no inhibition recorded at the highest AIP concentration tested): 50 ± 11 nM; IC50 (SA AgrC-IV [2]; read-out: IC50, SA AgrC-IV, b-lactamase assay; 100 nM cognate AIP; ± SEM; -b = no inhibition recorded at the highest AIP concentration tested; determined previously; ref (1); cited from earlier work): 280 ± 66 nM; IC50 (SA AgrC-II [3]; read-out: IC50, SA AgrC-II, b-lactamase assay; 100 nM cognate AIP; ± SEM; -b = no inhibition recorded at the highest AIP concentration tested; determined previously; ref (1); cited from earlier work): 23 ± 2 nM |
| NCCCC[C@H](N)C(=O)N[C@@H](Cc1ccc(O)cc1)C(=O)N[C@@H](Cc1ccc(O)cc1)C(=O)N1CCC[C@H]1C(=O)N[C@H]1CSC(=O)[C@H](Cc2ccccc2)NC(=O)[C@H](Cc2ccc(O)cc2)NC(=O)CNC(=O)[C@H](Cc2c[nH]c3ccccc23)NC1=O [compound 33, S. simulans AIP-II] (H-KYYPCWGYF; thioester 5-C) |  |  |  | 40 | 80 ± 7 | 273 ± 26 | 198 ± 33 | 1.9 ± 0.3 | agr activity during daily passaging for 15 days ([6]; 33 at 2 nM or 100 nM): full repression of agr activity; also recorded: repressed agr activity; susceptibility to QS inhibition after 15 passages compared with non-passaged reporter strain ([6]; passaged cultures treated with 33 (10–0.08 nM)): no change in potency; also recorded: remained equally susceptible |
| NCCCC[C@H](N)C(=O)N[C@@H](Cc1ccc(O)cc1)C(=O)N[C@@H](CC(N)=O)C(=O)N1CCC[C@H]1C(=O)N[C@H]1CSC(=O)[C@H](Cc2ccccc2)NC(=O)[C@H](Cc2ccc(O)cc2)NC(=O)CNC(=O)[C@H](Cc2c[nH]c3ccccc23)NC1=O [compound 34, S. simulans AIP-III] (H-KYNPCWGYF; thioester 5-C) |  |  |  | 48 | 60 ± 7 | 351 ± 60 | 103 ± 5 | 1.6 ± 0.1 |  |
| S. aureus AIP-III D4A [compound 57, reference compound] | 0.06 | 0.16 | 34 ± 1 |  |  |  |  |  | IC50 (S. aureus (SA) agr-I; ref (8)): 0.16 ± 0.01 nM; IC50 (SA AgrC-III [1]; only partial inhibition observed, read-out: IC50, SA AgrC-III, b-lactamase assay, only partial inhibition observed (footnote a)): 1.6 ± 0.2 nM; IC50 (SA AgrC-IV [2]; 100 nM cognate AIP; ± SEM; -b = no inhibition recorded at the highest AIP concentration tested; determined previously; ref (1); read-out: IC50, SA AgrC-IV, b-lactamase assay; cited from earlier work): 10 ± 0.2 nM; IC50 (S. aureus (SA) agr-IV; ref (5)): 0.035 nM; inhibition at 10 µM, SE agr-I ([4]; at 10 µM): ~ 25% |
